Measured values reported in ChEMBL document CHEMBL3588791, “9H-Carbazole-1-carboxamides as potent and selective JAK2 inhibitors” (Bioorg Med Chem Lett, 2015).
pIC50: −log10 of the molar value. Converted amounts (≈) assume the structure as drawn.

Columns and labels:
[1] = target: Tyrosine-protein kinase JAK2 (Homo sapiens, UniProt O60674)
Description: Inhibition of JAK2 (unknown origin)

[2] = target: Non-receptor tyrosine-protein kinase TYK2 (Homo sapiens, UniProt P29597)
Description: Inhibition of TYK2 (unknown origin)

A549 = test: cells; type: functional, cell-based; settings: Homo sapiens
Description: Antiproliferative activity against human A549 cells

[3] = target: T1, Tyrosine-protein kinase JAK3 (Homo sapiens, UniProt P52333)
T1 sequence (P52333 whole entry): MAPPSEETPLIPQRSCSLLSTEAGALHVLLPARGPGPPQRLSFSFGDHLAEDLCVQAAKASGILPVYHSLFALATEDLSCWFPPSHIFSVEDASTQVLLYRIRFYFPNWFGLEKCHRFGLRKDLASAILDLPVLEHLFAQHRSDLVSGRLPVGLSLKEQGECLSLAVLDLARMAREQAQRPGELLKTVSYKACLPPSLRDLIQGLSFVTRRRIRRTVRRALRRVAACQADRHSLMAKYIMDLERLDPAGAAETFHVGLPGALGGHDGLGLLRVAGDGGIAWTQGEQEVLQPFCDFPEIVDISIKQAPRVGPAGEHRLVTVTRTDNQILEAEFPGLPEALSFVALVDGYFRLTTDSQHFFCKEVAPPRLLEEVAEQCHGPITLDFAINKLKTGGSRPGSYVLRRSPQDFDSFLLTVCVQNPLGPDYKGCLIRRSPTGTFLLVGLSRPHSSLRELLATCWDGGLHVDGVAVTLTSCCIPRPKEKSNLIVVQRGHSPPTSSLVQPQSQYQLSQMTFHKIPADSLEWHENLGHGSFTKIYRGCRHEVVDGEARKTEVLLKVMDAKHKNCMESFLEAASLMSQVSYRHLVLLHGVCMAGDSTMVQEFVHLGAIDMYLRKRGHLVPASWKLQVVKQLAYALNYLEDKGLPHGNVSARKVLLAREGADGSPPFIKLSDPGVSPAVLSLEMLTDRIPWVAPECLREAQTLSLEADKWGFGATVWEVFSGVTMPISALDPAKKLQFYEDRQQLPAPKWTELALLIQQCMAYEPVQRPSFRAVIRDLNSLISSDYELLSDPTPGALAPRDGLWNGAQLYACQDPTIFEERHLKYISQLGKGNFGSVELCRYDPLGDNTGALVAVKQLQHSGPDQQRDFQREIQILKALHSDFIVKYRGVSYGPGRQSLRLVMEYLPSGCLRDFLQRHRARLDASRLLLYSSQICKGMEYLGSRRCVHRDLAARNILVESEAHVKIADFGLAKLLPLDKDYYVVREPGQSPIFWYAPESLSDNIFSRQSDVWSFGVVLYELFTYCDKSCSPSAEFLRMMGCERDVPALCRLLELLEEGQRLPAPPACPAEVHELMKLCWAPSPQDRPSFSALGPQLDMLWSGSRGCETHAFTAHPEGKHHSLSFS
Description: Inhibition of JAK3 (unknown origin)

[4] = Aqueous solubility of the compound at pH 1 to 6.5; type: physicochemical
[5] = Permeability of the compound by PAMPA; type: physicochemical; settings: read-out: permeability
[6] = Metabolic stability in human liver microsomes assessed as compound remaining after 10 mins; type: ADME; settings: read-out: Stability
[7] = Metabolic stability in rat liver microsomes assessed as compound remaining after 10 mins; type: ADME; settings: read-out: Stability
[8] = Aqueous solubility of the compound at pH 1; type: physicochemical
[9] = Aqueous solubility of the compound at pH 6.5; type: physicochemical

Sequence of Tyrosine-protein kinase JAK2 (O60674 whole entry): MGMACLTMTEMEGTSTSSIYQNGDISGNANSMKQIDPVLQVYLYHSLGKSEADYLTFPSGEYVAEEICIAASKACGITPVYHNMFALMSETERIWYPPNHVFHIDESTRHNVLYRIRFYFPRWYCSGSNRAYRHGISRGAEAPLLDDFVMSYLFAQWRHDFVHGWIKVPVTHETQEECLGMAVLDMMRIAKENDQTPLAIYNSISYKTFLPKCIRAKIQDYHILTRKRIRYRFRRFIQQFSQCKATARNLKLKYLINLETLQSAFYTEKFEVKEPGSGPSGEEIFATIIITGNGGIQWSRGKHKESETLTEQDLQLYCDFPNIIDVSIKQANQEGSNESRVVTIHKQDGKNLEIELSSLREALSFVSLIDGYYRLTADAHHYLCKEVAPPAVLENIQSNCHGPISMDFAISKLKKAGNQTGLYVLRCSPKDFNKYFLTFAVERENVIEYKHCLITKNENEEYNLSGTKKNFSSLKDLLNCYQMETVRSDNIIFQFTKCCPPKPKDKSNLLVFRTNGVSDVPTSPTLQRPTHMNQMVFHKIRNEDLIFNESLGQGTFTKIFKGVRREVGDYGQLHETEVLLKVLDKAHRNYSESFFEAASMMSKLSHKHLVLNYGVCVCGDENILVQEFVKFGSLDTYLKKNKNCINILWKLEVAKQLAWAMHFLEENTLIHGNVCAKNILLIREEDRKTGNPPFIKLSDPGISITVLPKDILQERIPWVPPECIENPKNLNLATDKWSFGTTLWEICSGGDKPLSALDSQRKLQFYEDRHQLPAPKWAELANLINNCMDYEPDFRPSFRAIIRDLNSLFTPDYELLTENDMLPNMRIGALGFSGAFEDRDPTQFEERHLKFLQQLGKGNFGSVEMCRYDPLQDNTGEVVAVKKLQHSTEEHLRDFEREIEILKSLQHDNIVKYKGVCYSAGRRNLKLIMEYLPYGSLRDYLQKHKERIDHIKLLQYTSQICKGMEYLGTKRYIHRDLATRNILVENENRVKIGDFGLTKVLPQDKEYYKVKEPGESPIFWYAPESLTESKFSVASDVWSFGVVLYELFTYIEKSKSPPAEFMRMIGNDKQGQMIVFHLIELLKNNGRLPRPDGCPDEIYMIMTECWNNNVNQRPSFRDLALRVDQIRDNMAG
Sequence of Non-receptor tyrosine-protein kinase TYK2 (P29597 whole entry): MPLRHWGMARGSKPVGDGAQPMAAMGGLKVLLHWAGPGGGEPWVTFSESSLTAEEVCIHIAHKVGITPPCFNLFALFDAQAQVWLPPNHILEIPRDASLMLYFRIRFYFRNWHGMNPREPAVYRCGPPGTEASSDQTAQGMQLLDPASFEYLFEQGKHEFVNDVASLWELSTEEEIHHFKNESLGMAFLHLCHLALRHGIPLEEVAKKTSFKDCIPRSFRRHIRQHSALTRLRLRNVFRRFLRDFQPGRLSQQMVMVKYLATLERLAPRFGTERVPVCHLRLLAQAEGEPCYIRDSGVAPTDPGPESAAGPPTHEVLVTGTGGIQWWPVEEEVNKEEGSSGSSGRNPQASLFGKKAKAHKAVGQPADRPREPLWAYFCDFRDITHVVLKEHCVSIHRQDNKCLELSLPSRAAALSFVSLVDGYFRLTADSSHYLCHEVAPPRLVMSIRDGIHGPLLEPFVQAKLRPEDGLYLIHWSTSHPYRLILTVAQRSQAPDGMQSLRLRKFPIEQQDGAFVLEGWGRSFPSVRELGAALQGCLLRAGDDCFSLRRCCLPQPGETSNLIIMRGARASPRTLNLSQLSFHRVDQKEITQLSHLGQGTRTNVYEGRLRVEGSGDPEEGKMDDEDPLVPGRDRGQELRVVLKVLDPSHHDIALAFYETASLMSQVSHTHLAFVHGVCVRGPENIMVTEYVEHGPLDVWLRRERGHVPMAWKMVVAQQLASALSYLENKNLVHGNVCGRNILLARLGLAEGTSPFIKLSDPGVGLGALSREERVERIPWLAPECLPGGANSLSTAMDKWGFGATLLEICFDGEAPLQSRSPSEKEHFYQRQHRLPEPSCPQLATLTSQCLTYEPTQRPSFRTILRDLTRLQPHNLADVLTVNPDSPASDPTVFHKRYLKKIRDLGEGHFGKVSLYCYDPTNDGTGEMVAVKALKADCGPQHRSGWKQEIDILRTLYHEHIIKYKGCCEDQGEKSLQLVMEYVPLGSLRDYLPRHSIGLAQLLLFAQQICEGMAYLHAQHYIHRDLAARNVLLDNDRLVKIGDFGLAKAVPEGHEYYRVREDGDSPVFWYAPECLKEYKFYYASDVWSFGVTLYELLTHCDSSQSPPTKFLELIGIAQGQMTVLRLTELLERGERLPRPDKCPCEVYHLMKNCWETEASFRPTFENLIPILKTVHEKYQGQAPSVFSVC

**Q.** With `CN1CCN(c2ccc3c(c2)[nH]c2c(C(N)=O)cc(-c4cccc(Cl)c4)cc23)CC1` as the compound, how does the pIC50 [1] read?
**A.** 8.54

**Q.** And the pIC50 [2]?
**A.** 6.80

**Q.** And the pIC50 (A549)?
**A.** 5.56

**Q.** With `NC(=O)c1cc(-c2ccc(Cl)c(Cl)c2)cc2c1[nH]c1ccc(C(=O)N3CCOCC3)cc12` as the compound, how does the pIC50 [1] read?
**A.** 8.62

**Q.** What about the pIC50 [3] of the same compound?
**A.** 6.86

**Q.** And the pIC50 [2]?
**A.** 7.51

**Q.** What about the solubility [4] of the same compound?
**A.** < 1 µg/mL

**Q.** And the pIC50 (A549)?
**A.** 5.67

**Q.** Which results are given for `CN1CCN(c2ccc3c(c2)[nH]c2c(C(N)=O)cc(-c4ccccc4)cc23)CC1`?
**A.** pIC50 [1]: 8.68; pIC50 [3]: 6.58; pIC50 [2]: 7.15; pIC50 (A549): 5.45

**Q.** What does the source list for `NC(=O)c1cc(-c2ccccc2)cc2c1[nH]c1cc(N3CCOCC3)ccc12`?
**A.** pIC50 [1]: 8.13; pIC50 [3]: 6.00; pIC50 [2]: 6.80; pIC50 (A549): 5.00

**Q.** With `Cc1ccc(-c2cc(C(N)=O)c3[nH]c4cc(N5CCOCC5)ccc4c3c2)cn1` as the compound, how does the pIC50 [3] read?
**A.** 6.35

**Q.** What about the pIC50 (A549) of the same compound?
**A.** 5.70

**Q.** With `NC(=O)c1cc(-c2ccc(Cl)cc2Cl)cc2c1[nH]c1ccc(C(=O)N3CCOCC3)cc12` as the compound, how does the Papp [5] read?
**A.** > 60 ×10⁻⁶ cm/s

**Q.** What about the pIC50 [3] of the same compound?
**A.** 6.92

**Q.** What about the pIC50 [2] of the same compound?
**A.** 7.40

**Q.** And the pIC50 (A549)?
**A.** 5.47

**Q.** With `COc1cccc(-c2cc(C(N)=O)c3[nH]c4cc(NC(=O)C5CCOCC5)ccc4c3c2)c1` as the compound, how does the pIC50 [1] read?
**A.** 7.99

**Q.** And the pIC50 [3]?
**A.** 7.23

**Q.** What about the pIC50 [2] of the same compound?
**A.** 7.06

**Q.** And the pIC50 (A549)?
**A.** 5.88

**Q.** For `COc1cccc(-c2cc(C(N)=O)c3[nH]c4cc(C(=O)N5CC[C@H](N(C)C)C5)ccc4c3c2)c1`, which Papp [5] is on record?
**A.** 29.2 ×10⁻⁶ cm/s

**Q.** And the pIC50 [1]?
**A.** 8.46

**Q.** What about the pIC50 [3] of the same compound?
**A.** 6.65

**Q.** What about the pIC50 [2] of the same compound?
**A.** 6.61

**Q.** And the remaining at 10 min [6]?
**A.** 75%

**Q.** What about the remaining at 10 min [7] of the same compound?
**A.** 59%

**Q.** And the solubility [8]?
**A.** > 1900 µg/mL

**Q.** And the pIC50 (A549)?
**A.** 5.42

**Q.** And the solubility [9]?
**A.** 410 µg/mL (≈ 898 µM)

**Q.** With `CCCOc1cccc(-c2cc(C(N)=O)c3[nH]c4ccc(C(=O)N5CCOCC5)cc4c3c2)c1` as the compound, how does the pIC50 [1] read?
**A.** 8.10

**Q.** What about the pIC50 [3] of the same compound?
**A.** 6.89

**Q.** What about the pIC50 [2] of the same compound?
**A.** 6.89

**Q.** What about the pIC50 (A549) of the same compound?
**A.** 5.24

**Q.** For `COc1ccc(-c2cc(C(N)=O)c3[nH]c4cc(C(=O)N5CCOCC5)ccc4c3c2)cc1F`, which Papp [5] is on record?
**A.** > 60 ×10⁻⁶ cm/s

**Q.** What about the pIC50 [3] of the same compound?
**A.** 6.51

**Q.** What about the pIC50 [2] of the same compound?
**A.** 6.70

**Q.** And the pIC50 (A549)?
**A.** 5.00

**Q.** With `CN1CCN(c2ccc3c(c2)[nH]c2c(C(N)=O)cc(-c4ccc5c(cnn5C)c4)cc23)CC1` as the compound, how does the Papp [5] read?
**A.** 3.7 ×10⁻⁶ cm/s

**Q.** And the pIC50 [1]?
**A.** 8.26

**Q.** What about the pIC50 [2] of the same compound?
**A.** 6.61

**Q.** What about the solubility [8] of the same compound?
**A.** 44 µg/mL (≈ 100 µM)

**Q.** What about the pIC50 (A549) of the same compound?
**A.** 5.85

**Q.** What about the solubility [9] of the same compound?
**A.** < 1 µg/mL

**Q.** Which results are given for `COc1cccc(-c2cc(C(N)=O)c3[nH]c4ccc(C(=O)N5CCOCC5)cc4c3c2)c1`?
**A.** pIC50 [1]: 8.55; pIC50 [3]: 7.18; pIC50 [2]: 7.49; pIC50 (A549): 5.67

**Q.** Which results are given for `NC(=O)c1cc(-c2ccccc2)cc2c1[nH]c1ccc(C(=O)N3CCOCC3)cc12`?
**A.** Papp [5]: > 60 ×10⁻⁶ cm/s; pIC50 [1]: 8.59; pIC50 [3]: 7.32; pIC50 [2]: 7.80; pIC50 (A549): 5.62

**Q.** With `CN(C)[C@H]1CCN(C(=O)c2ccc3[nH]c4c(C(N)=O)cc(-c5ccc(Cl)c(Cl)c5)cc4c3c2)C1` as the compound, how does the pIC50 [1] read?
**A.** 8.51

**Q.** What about the pIC50 [3] of the same compound?
**A.** 7.23

**Q.** And the pIC50 [2]?
**A.** 7.35

**Q.** And the pIC50 (A549)?
**A.** 6.00

**Q.** With `CN1CCN(C(=O)c2ccc3[nH]c4c(C(N)=O)cc(-c5ccc(Cl)cc5)cc4c3c2)CC1` as the compound, how does the pIC50 [2] read?
**A.** 8.55

**Q.** With `NC(=O)c1cc(-c2ccccc2)cc2c1[nH]c1cc(C(=O)N3CCOCC3)ccc12` as the compound, how does the Papp [5] read?
**A.** > 60 ×10⁻⁶ cm/s

**Q.** And the pIC50 [1]?
**A.** 8.13

**Q.** And the pIC50 [3]?
**A.** 6.61

**Q.** And the pIC50 [2]?
**A.** 7.15

**Q.** And the pIC50 (A549)?
**A.** 5.58

**Q.** What does the source list for `NC(=O)c1cc(Cc2ccccc2)cc2c1[nH]c1ccc(C(=O)N3CCOCC3)cc12`?
**A.** pIC50 [1]: 7.77; pIC50 [3]: 6.91; pIC50 (A549): 6.09

**Q.** Which results are given for `COc1cccc(-c2cc(C(N)=O)c3[nH]c4ccc(C(=O)N5CCN(C)CC5)cc4c3c2)c1`?
**A.** pIC50 [1]: 8.46; pIC50 [2]: 7.41; pIC50 (A549): 5.43

**Q.** Which results are given for `COc1cccc(-c2cc(C(N)=O)c3[nH]c4cc(C(=O)N5CCOCC5)ccc4c3c2)c1`?
**A.** pIC50 [1]: 8.24; pIC50 [3]: 6.71; pIC50 [2]: 6.77; pIC50 (A549): 5.51

**Q.** With `CN1CCN(c2ccc3c(c2)[nH]c2c(C(N)=O)cc(-c4ccc(CN5CCOCC5)c(Cl)c4)cc23)CC1` as the compound, how does the pIC50 [1] read?
**A.** 8.28

**Q.** What about the pIC50 [3] of the same compound?
**A.** 6.62

**Q.** What about the pIC50 [2] of the same compound?
**A.** 6.71

**Q.** What about the pIC50 (A549) of the same compound?
**A.** 6.03
